Data reported in patent publication US20230203081A1, “LINCOSAMIDE ANTIBIOTICS AND USES THEREOF” (President and Fellows of Harvard College, priority 2020, published 2023).
Converted amounts (≈) assume the structure as drawn.

Assays:
Assay type in all cases: cell-based
[1] = system: E. coli ΔTolC; test: microbe, parasite or virus in culture; details: Escherichia coli
In short: (§1)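 Isolates other than streptococci and anaerobes, which had their own procedures, were grown overnight at 35° C on tryptic soy agar with 5% sheep blood. Suspensions were then diluted to a final inoculum of 5×10^5 CFU/mL in broth microdilution wells.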

[2] = system: broad panel of different clinical isolates; test: microbe, parasite or virus in culture
In short: as §1

[3] = system: E. coli ATCC 25922; test: MIC (broth microdilution or agar dilution, CLSI); details: Escherichia coli, ATCC25922
In short: as §1

[4] = system: E. coli LptD; test: MIC (broth microdilution or agar dilution, CLSI); details: Escherichia coli, E. coli HAV#040; LptD; read-out: MIC
In short: as §1

[5] = system: E. faecalis ATCC 29212; test: MIC (broth microdilution or agar dilution, CLSI); details: Enterococcus faecalis, ATCC29212
In short: as §1

[6] = system: E. faecalis MMX 847; cErmB; test: MIC (broth microdilution or agar dilution, CLSI); details: Enterococcus faecalis
In short: as §1

[7] = system: K. pneumoniae ATCC 10031; test: MIC (broth microdilution or agar dilution, CLSI); details: Klebsiella pneumoniae, ATCC10031
In short: as §1

[8] = system: S. aureus ATCC 29213; test: MIC (broth microdilution or agar dilution, CLSI); details: Staphylococcus aureus, ATCC29213
In short: as §1

[9] = system: S. aureus ATCC 700699; test: MIC (broth microdilution or agar dilution, CLSI); details: Staphylococcus aureus, ATCC 700699 / VISA
In short: as §1

[10] = system: S. aureus ATCC BAA-1707 (MRSA); test: MIC (broth microdilution or agar dilution, CLSI); details: Staphylococcus aureus
In short: as §1

[11] = system: S. aureus MMX 3035 cErmA; test: MIC (broth microdilution or agar dilution, CLSI); details: Staphylococcus aureus, MMX3035CERMA
In short: as §1

[12] = system: S. aureus hVISA; test: MIC (broth microdilution or agar dilution, CLSI); details: Staphylococcus aureus
In short: as §1

[13] = system: S. pneumoniae ATCC 49619; test: MIC (broth microdilution or agar dilution, CLSI); details: Streptococcus pneumoniae, ATCC49619
In short: as §1

[14] = system: S. pneumoniae ATCC 6303; test: MIC (broth microdilution or agar dilution, CLSI); details: Streptococcus pneumoniae, ATCC6303
In short: as §1

[15] = system: S. pneumoniae MMX 3028 cErmB; test: MIC (broth microdilution or agar dilution, CLSI); details: Streptococcus pneumoniae, MMX3028CERMB
In short: as §1

[16] = system: S. pneumoniae MMX 3031 cMefA; test: MIC (broth microdilution or agar dilution, CLSI); details: Streptococcus pneumoniae, MMX3031CMEFA
In short: as §1

[17] = system: S. pyogenes ATCC 19615; test: MIC (broth microdilution or agar dilution, CLSI); details: Streptococcus pyogenes, ATCC19615
In short: as §1

[18] = system: S. pyogenes MMX 946; cErmB; test: MIC (broth microdilution or agar dilution, CLSI); details: Streptococcus pyogenes
In short: as §1

CN[C@H](CC(C)C)C(=O)N[C@H]1C(=O)N[C@@H](CC(N)=O)C(=O)N[C@H]2C(=O)N[C@H]3C(=O)N[C@H](C(=O)N[C@H](C(=O)O)c4cc(O)cc(O)c4-c4cc3ccc4O)[C@H](O)c3ccc(c(Cl)c3)Oc3cc2cc(c3O[C@@H]2O[C@H](CO)[C@@H](O)[C@H](O)[C@H]2O[C@H]2C[C@](C)(N)[C@H](O)[C@H](C)O2)Oc2ccc(cc2Cl)[C@H]1O [Vancomycin] showed an MIC [1] of over 128 µg/mL, an MIC ([2]; Acinetobacter baumannii, A. baumannii HAV#651, Clinical) of 128 µg/mL (≈ 88.3 µM) and an MIC ([2]; Acinetobacter baumannii, A. baumannii HAV#652 Clinical) of 128 µg/mL (≈ 88.3 µM). It also gave an MIC ([2]; Acinetobacter baumannii, A. baumannii HAV#653, Clinical) of 128 µg/mL (≈ 88.3 µM), an MIC ([2]; Acinetobacter baumannii, A. baumannii HAV#654, Clinical) of 128 µg/mL (≈ 88.3 µM) and an MIC ([2]; Acinetobacter baumannii, A. baumannii HAV#655, Clinical) of 128 µg/mL (≈ 88.3 µM). The MIC ([2]; Acinetobacter baumannii, A. baumannii HAV#656, Clinical) was over 128 µg/mL, the MIC ([2]; Acinetobacter baumannii, A. baumannii HAV#657, Clinical) was over 128 µg/mL and the MIC ([2]; Acinetobacter baumannii, A. baumannii HAV#658, Clinical) was over 128 µg/mL. For the same molecule, the MIC ([2]; Acinetobacter baumannii, A. baumannii HAV#659, Clinical) was over 128 µg/mL, the MIC ([2]; Acinetobacter baumannii, A. baumannii HAV#660, Clinical) was over 128 µg/mL and the MIC ([2]; Acinetobacter baumannii, A. baumannii HAV#661, Clinical) was 128 µg/mL (≈ 88.3 µM). For the same molecule, the MIC ([2]; Acinetobacter baumannii, A. baumannii HAV#662, Clinical) was over 128 µg/mL, the MIC ([2]; Acinetobacter baumannii, A. baumannii HAV#663, Clinical) was 128 µg/mL (≈ 88.3 µM) and the MIC ([2]; Acinetobacter baumannii, A. baumannii HAV#664, Carbapenem R) was over 128 µg/mL. The MIC ([2]; Enterococcus faecalis, E. faecalis HAV#602, Clincal) was 4 µg/mL (≈ 2.76 µM), the MIC ([2]; Enterococcus faecalis, E. faecalis HAV#607, Clinical) was over 128 µg/mL and the MIC ([2]; Enterococcus faecalis, E. faecalis HAV#608, Clinical) was 16 µg/mL (≈ 11 µM). The MIC ([2]; Enterococcus faecalis, E. faecalis HAV#609, Clinical) was 32 µg/mL (≈ 22.1 µM), the MIC ([2]; Enterococcus faecalis, E. faecalis HAV#610, Clinical) was 32 µg/mL (≈ 22.1 µM) and the MIC ([2]; Enterococcus faecalis, S. faecalis 5060, Line R & Vanco R) was over 256 µg/mL. For the same molecule, the MIC ([2]; Enterococcus faecalis, S. faecalis 5074, Line R) was 2 µg/mL (≈ 1.38 µM), the MIC ([2]; Enterococcus faecalis, VRE, E. faecalis HAV#251, Clinical VRE) was 8 µg/mL (≈ 5.52 µM) and the MIC ([2]; Enterococcus faecalis, VRE, E. faecalis HAV#606, Clinical) was over 128 µg/mL. It also gave an MIC ([2]; Enterococcus faecium, E. faecium HAV#317, Clinical) of 2 µg/mL (≈ 1.38 µM), an MIC ([2]; Enterococcus faecium, E. faecium HAV#324, Clinical) of over 128 µg/mL and an MIC ([2]; Enterococcus faecium, E. faecium HAV#327, Clinical) of 4 µg/mL (≈ 2.76 µM). For the same molecule, the MIC ([2]; Enterococcus faecium, E. faecium HAV#328, Clinical) was over 128 µg/mL, the MIC ([2]; Enterococcus faecium, E. faecium HAV#329, Clinical) was over 128 µg/mL and the MIC ([2]; Enterococcus faecium, VRE, E. faecium HAV#318, VanA) was over 64 µg/mL. The MIC ([2]; Enterococcus faecium, VRE, E. faecium HAV#319, Line R & Vanco R) was over 256 µg/mL, the MIC ([2]; Enterococcus faecium, VRE, E. faecium HAV#320, Clinical) was over 128 µg/mL and the MIC ([2]; Escherichia coli, E. coli HAV#503, Clinical) was 128 µg/mL (≈ 88.3 µM). The MIC ([2]; Escherichia coli, E. coli HAV#511, Clinical) was over 128 µg/mL, the MIC ([2]; Escherichia coli, E. coli HAV#512, Clinical) was over 128 µg/mL and the MIC ([2]; Escherichia coli, E. coli HAV#513, Clinical) was over 128 µg/mL. For the same molecule, the MIC ([2]; Escherichia coli, E. coli HAV#514, Clinical) was 128 µg/mL (≈ 88.3 µM), the MIC ([2]; Escherichia coli, E. coli HAV#516, ESBL-producing) was 128 µg/mL (≈ 88.3 µM) and the MIC ([2]; Haemophilus influenzae, ATCC9007, H. influenzae HAV#376, ATCC-9007) was over 64 µg/mL. It also gave an MIC ([2]; Klebsiella pneumoniae, K. pneumoniae HAV#404, Clinical) of over 128 µg/mL, an MIC ([2]; Klebsiella pneumoniae, K. pneumoniae HAV#405, Clinical) of over 128 µg/mL and an MIC ([2]; Klebsiella pneumoniae, K. pneumoniae HAV#406, Clinical) of over 128 µg/mL. The MIC ([2]; Klebsiella pneumoniae, K. pneumoniae HAV#407, Clinical) was over 128 µg/mL, the MIC ([2]; Klebsiella pneumoniae, K. pneumoniae HAV#408, Clinical) was over 128 µg/mL and the MIC ([2]; Klebsiella pneumoniae, K. pneumoniae HAV#409, ESBL-producing) was over 128 µg/mL. It also gave an MIC ([2]; Staphylococcus aureus, MRSA, S. aureus HAV#0107, MRSA Col(Colindale, England)) of 2 µg/mL (≈ 1.38 µM), an MIC ([2]; Staphylococcus aureus, MRSA, S. aureus HAV#218, Line R) of 1 µg/mL (≈ 0.69 µM) and an MIC ([2]; Staphylococcus aureus, MRSA, S. aureus HAV#220, Line R) of 1 µg/mL (≈ 0.69 µM). It also gave an MIC ([2]; Staphylococcus aureus, MSSA, S. aureus HAV#219, Line R) of 1 µg/mL (≈ 0.69 µM), an MIC ([2]; Staphylococcus aureus, S. aureus HAV#051, mecA, norA, spcl, ermA, aad1, aac6′-aph2″) of 2 µg/mL (≈ 1.38 µM) and an MIC ([2]; Staphylococcus aureus, S. aureus HAV#052, mecA, norA, fosB, blaZ) of 2 µg/mL (≈ 1.38 µM). It also gave an MIC ([2]; Staphylococcus aureus, S. aureus HAV#053 mecA, norA, fosB) of 2 µg/mL (≈ 1.38 µM), an MIC ([2]; Staphylococcus aureus, S. aureus HAV#054, mecA, norA, spcl, aad1, fosB, ermA, aac6′-aph2″, blaZ) of 1 µg/mL (≈ 0.69 µM) and an MIC ([2]; Staphylococcus aureus, S. aureus HAV#211, Clinical) of 0.5 µg/mL (≈ 0.345 µM). It also gave an MIC ([2]; Staphylococcus aureus, S. aureus HAV#212, Clinical) of 0.5 µg/mL (≈ 0.345 µM), an MIC ([2]; Staphylococcus aureus, S. aureus HAV#213, Clinical) of 0.5 µg/mL (≈ 0.345 µM) and an MIC ([2]; Staphylococcus aureus, S. aureus HAV#214, Clinical) of 0.5 µg/mL (≈ 0.345 µM). It also gave an MIC ([2]; Staphylococcus aureus, S. aureus HAV#215, Clinical) of 1 µg/mL (≈ 0.69 µM), an MIC ([2]; Staphylococcus aureus, S. aureus HAV#216, Clinical, cfr) of over 64 µg/mL and an MIC ([2]; Staphylococcus aureus, S. aureus HAV#217, cfr) of over 64 µg/mL. It also gave an MIC ([2]; Staphylococcus aureus, VISA, S. aureus HAV#203, Clinical (VISA)) of 8 µg/mL (≈ 5.52 µM), an MIC ([2]; Staphylococcus epidermidis, S. epidermidis HAV# 275 Clinical, cfr) of over 64 µg/mL and an MIC ([2]; Staphylococcus epidermidis, S. epidermidis HAV# 276, cfr) of over 64 µg/mL. For the same molecule, the MIC ([2]; Staphylococcus epidermidis, S. epidermidis HAV#277, Line R) was 2 µg/mL (≈ 1.38 µM), the MIC ([2]; Staphylococcus epidermidis, S. epidermidis HAV#278 Line R) was 2 µg/mL (≈ 1.38 µM) and the MIC ([2]; Staphylococcus epidermidis, S. epidermidis HAV#279, Line R) was 2 µg/mL (≈ 1.38 µM). It also gave an MIC ([2]; Staphylococcus haemolyticus, S. haemolyticus 5052, Line R & Methicillin R) of 1 µg/mL (≈ 0.69 µM), an MIC ([2]; Streptococcus pneumoniae, ATCC700673, S. pneumoniae HAV#352, ATCC 700673, MDR) of 0.5 µg/mL (≈ 0.345 µM) and an MIC ([2]; Streptococcus pneumoniae, ATCCBAA255, S. pneumoniae HAV#354, ATCC-BAA-255) of 1 µg/mL (≈ 0.69 µM). For the same molecule, the MIC ([2]; Streptococcus pneumoniae, ATCCBAA334, S. pneumoniae HAV#353, ATCC-BAA-334) was 0.5 µg/mL (≈ 0.345 µM), the MIC ([2]; Streptococcus pneumoniae, S. pneumoniae HAV#356, Clinical) was 2 µg/mL (≈ 1.38 µM) and the MIC ([2]; Streptococcus pneumoniae, S. pneumoniae HAV#358, Clinical) was 1 µg/mL (≈ 0.69 µM). It also gave an MIC [3] of over 128 µg/mL, an MIC [4] of 1 µg/mL (≈ 0.69 µM) and an MIC [5] of 4 µg/mL (≈ 2.76 µM). The MIC [6] was over 64 µg/mL, the MIC [7] was over 64 µg/mL and the MIC [8] was 1 µg/mL (≈ 0.69 µM). The MIC [9] was 8 µg/mL (≈ 5.52 µM), the MIC [10] was 1 µg/mL (≈ 0.69 µM) and the MIC [11] was 2 µg/mL (≈ 1.38 µM). It also gave an MIC [12] of 2 µg/mL (≈ 1.38 µM), an MIC [13] of 0.5 µg/mL (≈ 0.345 µM) and an MIC [14] of 0.5 µg/mL (≈ 0.345 µM). The MIC [15] was 0.25 µg/mL (≈ 0.173 µM), the MIC [16] was 0.5 µg/mL (≈ 0.345 µM) and the MIC [17] was 0.5 µg/mL (≈ 0.345 µM). It also gave an MIC [18] of 0.5 µg/mL (≈ 0.345 µM).
